Values quoted from earlier work as cited in US20250032643A1, “SYNTHETIC RECEPTORS” (UCL BUSINESS LTD, priority 2021, published 2025).

Molecular target: T1, α1B (Homo sapiens, UniProt P35368)
T1 sequence (P35368 1-520): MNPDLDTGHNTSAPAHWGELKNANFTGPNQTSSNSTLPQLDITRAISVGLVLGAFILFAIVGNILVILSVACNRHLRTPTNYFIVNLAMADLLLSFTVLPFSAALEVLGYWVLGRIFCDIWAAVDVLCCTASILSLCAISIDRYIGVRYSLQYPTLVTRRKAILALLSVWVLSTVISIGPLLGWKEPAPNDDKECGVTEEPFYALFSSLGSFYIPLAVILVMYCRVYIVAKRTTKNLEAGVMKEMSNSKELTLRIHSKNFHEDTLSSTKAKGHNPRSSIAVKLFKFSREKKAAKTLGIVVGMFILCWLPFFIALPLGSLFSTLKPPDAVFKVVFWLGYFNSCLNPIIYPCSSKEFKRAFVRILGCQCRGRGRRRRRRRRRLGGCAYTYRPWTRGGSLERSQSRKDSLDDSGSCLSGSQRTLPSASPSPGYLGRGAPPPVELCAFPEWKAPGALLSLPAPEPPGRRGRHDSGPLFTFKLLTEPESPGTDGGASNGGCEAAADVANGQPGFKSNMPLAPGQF
Details: read-out: binding affinity; native α1B receptor

CN(C)CCOC(c1ccccc1)c1ccccc1 [DPH, diphenhydramine]
Ki: > 1 µM
